Patent US20230413820A1, “HERBICIDAL N-HETEROARYL PYRAZOLE COMPOUNDS” (SYNGENTA CROP PROTECTION AG, priority 2020, published 2023)

Tests used:
Format in all cases: in vivo
[1] = test system: Echinochloa crus-galli (ECHCG); assay: Post-emergence herbicide glasshouse test; details: 250 g/ha, sprayed after 8 days cultivation, evaluated after 13 days
Protocol: (§1) Seeds of a variety of test species (Abutilon theophrasti (ABUTH), Amaranthus retoflexus (AMARE), Echinochloa crus-galli (ECHCG), Ipomoea hederacea (IPOHE), Setaria faberi (SETFA)) are sown in standard soil in pots. After cultivation for one day (pre-emergence) or after 8 days cultivation (post-emergence) under controlled conditions in a glasshouse (at 24/16° C., day/night; 14 hours light; 65% humidity), the plants are sprayed with an aqueous spray solution derived from the formulation of the technical active ingredient in acetone/water (50:50) solution containing 0.5% Tween 20 (polyoxyethelyene sorbitan monolaurate, CAS RN 9005-64-5). Compounds are applied at 250 g/ha unless otherwise stated. The test plants are then grown in a glasshouse under controlled conditions in a glasshouse (at 24/16° C., day/night; 14 hours light; 65% humidity) and watered twice daily. After 13 days for pre- and post-emergence, the test is evaluated for the percentage damage caused to the plant. The biological activities are shown in the following table on a five-point scale (5=81-100%; 4=61-80%; 3=41-60%; 2=21-40%; 1=0-20%).

Setaria faberi (SETFA) [2] = assay: Post-emergence herbicide glasshouse test; details: 250 g/ha, sprayed after 8 days cultivation, evaluated after 13 days
Protocol: as §1

[3] = test system: Amaranthus retoflexus (AMARE); assay: Post-emergence herbicide glasshouse test; details: 250 g/ha, sprayed after 8 days cultivation, evaluated after 13 days
Protocol: as §1

[4] = test system: Ipomoea hederacea (IPOHE); assay: Post-emergence herbicide glasshouse test; details: 250 g/ha, sprayed after 8 days cultivation, evaluated after 13 days
Protocol: as §1

[5] = test system: Echinochloa crus-galli (ECHCG); assay: Pre-emergence herbicide glasshouse test; details: 250 g/ha, sprayed after one day cultivation, evaluated after 13 days
Protocol: as §1

Setaria faberi (SETFA) [6] = assay: Pre-emergence herbicide glasshouse test; details: 250 g/ha, sprayed after one day cultivation, evaluated after 13 days
Protocol: as §1

[7] = test system: Amaranthus retoflexus (AMARE); assay: Pre-emergence herbicide glasshouse test; details: 250 g/ha, sprayed after one day cultivation, evaluated after 13 days
Protocol: as §1

[8] = test system: Ipomoea hederacea (IPOHE); assay: Pre-emergence herbicide glasshouse test; details: 250 g/ha, sprayed after one day cultivation, evaluated after 13 days
Protocol: as §1

[9] = test system: Abutilon theophrasti (ABUTH); assay: Post-emergence herbicide glasshouse test; details: 250 g/ha, sprayed after 8 days cultivation, evaluated after 13 days
Protocol: as §1

[10] = test system: Abutilon theophrasti (ABUTH); assay: Pre-emergence herbicide glasshouse test; details: 250 g/ha, sprayed after one day cultivation, evaluated after 13 days
Protocol: as §1

| Structure (SMILES) | percentage damage caused to the plant, ECHCG [1] | percentage damage caused to the plant, SETFA (Setaria faberi (SETFA) [2]) | percentage damage caused to the plant, AMARE [3] | percentage damage caused to the plant, IPOHE [4] | percentage damage caused to the plant, ECHCG [5] | percentage damage caused to the plant, SETFA (Setaria faberi (SETFA) [6]) | percentage damage caused to the plant, AMARE [7] | percentage damage caused to the plant, IPOHE [8] | percentage damage caused to the plant, ABUTH [9] | percentage damage caused to the plant, ABUTH [10] |
| --- | --- | --- | --- | --- | --- | --- | --- | --- | --- | --- |
| N#Cc1ccc(-n2nc(C(F)(F)F)cc2Oc2cccc(OC(F)F)n2)nc1 [Compound 1.029] | 1 (1=0-20%) | 1 (1=0-20%) | 5 (5=81-100%) | 3 (3=41-60%) | 2 (2=21-40%) | 2 (2=21-40%) | 4 (4=61-80%) | 1 (1=0-20%) |  |  |
| COc1ccnc(-n2nc(C(F)(F)F)cc2Oc2cccc(OC(F)F)n2)n1 [Compound 1.026] | 1 (1=0-20%) | 1 (1=0-20%) | 3 (3=41-60%) | 1 (1=0-20%) | 1 (1=0-20%) | 1 (1=0-20%) | 4 (4=61-80%) | 1 (1=0-20%) | 1 (1=0-20%) | 2 (2=21-40%) |
| FC(F)c1cccc(Oc2cc(C(F)(F)F)nn2-c2ncc(Cl)cn2)n1 [Compound 1.003] | 4 (4=61-80%) | 4 (4=61-80%) | 5 (5=81-100%) | 4 (4=61-80%) | 4 (4=61-80%) | 2 (2=21-40%) | 5 (5=81-100%) | 2 (2=21-40%) | 3 (3=41-60%) | 1 (1=0-20%) |
| FC(F)(F)c1cc(Oc2ccnc(Cl)n2)n(-c2ncc(Cl)cn2)n1 [Compound 1.012] | 1 (1=0-20%) | 1 (1=0-20%) | 2 (2=21-40%) | 1 (1=0-20%) | 1 (1=0-20%) | 2 (2=21-40%) | 3 (3=41-60%) | 1 (1=0-20%) |  |  |
| FC(F)(F)c1cc(Oc2cccc(Cl)n2)n(-c2ncc(Cl)cn2)n1 [Compound 1.001] | 4 (4=61-80%) | 3 (3=41-60%) | 5 (5=81-100%) | 2 (2=21-40%) | 5 (5=81-100%) | 5 (5=81-100%) | 5 (5=81-100%) | 1 (1=0-20%) | 2 (2=21-40%) | 1 (1=0-20%) |
| FC(F)Oc1cccc(Oc2cc(C(F)(F)F)nn2-c2ncc(Cl)cn2)n1 [Compound 1.002] | 5 (5=81-100%) | 5 (5=81-100%) | 5 (5=81-100%) | 4 (4=61-80%) | 5 (5=81-100%) | 5 (5=81-100%) | 5 (5=81-100%) | 3 (3=41-60%) | 5 (5=81-100%) | 4 (4=61-80%) |
| FC(F)Oc1cccc(Oc2cc(C(F)(F)F)nn2-c2ncccn2)n1 [Compound 1.027] | 1 (1=0-20%) | 1 (1=0-20%) | 4 (4=61-80%) | 2 (2=21-40%) | 1 (1=0-20%) | 1 (1=0-20%) | 3 (3=41-60%) | 2 (2=21-40%) |  |  |
| FC(F)(F)c1cccc(Oc2cc(C(F)(F)F)nn2-c2ncc(Cl)cn2)n1 [Compound 1.004] | 4 (4=61-80%) | 4 (4=61-80%) | 5 (5=81-100%) | 3 (3=41-60%) | 5 (5=81-100%) | 5 (5=81-100%) | 5 (5=81-100%) | 2 (2=21-40%) | 4 (4=61-80%) | 4 (4=61-80%) |
| Fc1cnc(-n2nc(C(F)(F)F)cc2Oc2cccc(OC(F)F)n2)nc1 [Compound 1.005, 2-[5-[[6-(difluoromethoxy)-2-pyridyl]oxy]-3-(trifluoromethyl)pyrazol-1-yl]-5-fluoro-pyrimidine] | 4 (4=61-80%) | 4 (4=61-80%) | 5 (5=81-100%) | 4 (4=61-80%) | 5 (5=81-100%) | 5 (5=81-100%) | 5 (5=81-100%) | 5 (5=81-100%) | 5 (5=81-100%) | 4 (4=61-80%) |
| Fc1cc(Cl)cnc1-n1nc(C(F)(F)F)cc1Oc1cccc(OC(F)F)n1 [Compound 1.031] | 1 (1=0-20%) | 2 (2=21-40%) | 4 (4=61-80%) | 1 (1=0-20%) | 1 (1=0-20%) | 2 (2=21-40%) |  | 1 (1=0-20%) |  |  |
| FC(F)Oc1cnc(-n2nc(C(F)(F)F)cc2Oc2cccc(OC(F)F)n2)nc1 [Compound 1.028] | 5 (5=81-100%) | 5 (5=81-100%) | 5 (5=81-100%) | 3 (3=41-60%) | 5 (5=81-100%) | 5 (5=81-100%) | 5 (5=81-100%) | 1 (1=0-20%) |  |  |
| N#Cc1cccc(Oc2cc(C(F)(F)F)nn2-c2ncc(Cl)cn2)n1 [Compound 1.023] | 4 (4=61-80%) | 4 (4=61-80%) | 4 (4=61-80%) | 3 (3=41-60%) | 4 (4=61-80%) | 5 (5=81-100%) | 5 (5=81-100%) | 4 (4=61-80%) |  |  |
| FC(F)(F)c1cc(Oc2ccnc(C(F)(F)F)n2)n(-c2ncc(Cl)cn2)n1 [Compound 1.011] | 4 (4=61-80%) | 4 (4=61-80%) | 4 (4=61-80%) | 1 (1=0-20%) | 4 (4=61-80%) | 5 (5=81-100%) | 5 (5=81-100%) | 1 (1=0-20%) |  |  |
| N#Cc1cc(Cl)cnc1-n1nc(C(F)(F)F)cc1Oc1cccc(OC(F)F)n1 [Compound 1.030] | 1 (1=0-20%) | 2 (2=21-40%) | 3 (3=41-60%) | 1 (1=0-20%) | 1 (1=0-20%) | 1 (1=0-20%) | 2 (2=21-40%) | 1 (1=0-20%) |  |  |
| Fc1cnc(-n2nc(C(F)(F)F)cc2Oc2cccc(C(F)(F)F)n2)nc1 [Compound 1.024] | 1 (1=0-20%) | 1 (1=0-20%) | 2 (2=21-40%) | 1 (1=0-20%) | 1 (1=0-20%) | 1 (1=0-20%) | 5 (5=81-100%) | 1 (1=0-20%) |  |  |
| Cc1nccc(Oc2cc(C(F)(F)F)nn2-c2ncc(Cl)cn2)n1 [Compound 1.015] | 1 (1=0-20%) | 1 (1=0-20%) | 2 (2=21-40%) | 1 (1=0-20%) | 1 (1=0-20%) | 2 (2=21-40%) | 3 (3=41-60%) | 1 (1=0-20%) |  |  |
